Assay results taken from patent US10030002B2, “Coumarin derivative for detection of cysteine and process for the synthesis thereof” (COUNCIL OF SCIENTIFIC & INDUSTRIAL RESEARCH, priority 2015, dated 2018).

Assays:
[1] = thiol pKa; cited from earlier work
[2] = cited from earlier work
amino acylase-1 = assay: Detection of Cys generated enzymatically from NAC; format: biochemical
From the text: In another preferred embodiment, the detection of Cys generated in an enzymatic reaction is studied. N-acetyl-cysteine (NAC) is employed as substrate and amino acylase-1 as an enzyme. N-acetyl-cysteine, an acetylated form of Cys, a well known pro-drug used as a cysteine supplement in treatment of glutathione replenishment, acetaminophen over dose, HIV patients etc. NAC supplement releases the Cys inside the cells. […] Amino acylases are a class of enzymes which specifically hydrolyses the N-acetylated amino acids to release the free amino acids. There are many amino acylases known for de-acetylation of acetylated amino acids, among them Amino acylase-1 is well known for its ability to hydrolyse acetylated cysteine.
Cipla made effervescent tablets of N-Acetyl-Cysteine were purchased from commercially available sources. Based on the quantity of NAC present in the tablet, 1.0×10^−1M tablet solution was prepared in 10 mM aq.
HEPES buffer solution (pH7). Enzyme solution was prepared according to the requirement by dissolving 1 mg/ml in 10 mM aq.HEPES buffer solution (pH7). A fixed concentration of NAC (200 equiv.) was added to the 10 μM probe in HEPES:CH3CN (9:1, v/v). Since 1 mg of solid enzyme contains 3301 units of protein and 1 unit can hydrolyse 1 μM of substrate, accordingly enzyme concentration was varied with respect to the substrate concentration.
10 μM of 7-(diethylamino)-3-((E)-4-((E)-2-nitrovinyl)styryl)-2H-chromen-2-one is treated with 200 equiv. of NAC and different concentration of enzyme (0-2000 units) was added and the resulting solution was incubated at 37° C. for the time period ranging from 45 to 50 mins. Initially there is no fluorescence because NAC cannot bind to probe and fluorescence is turned on gradually with time, which indicates the hydrolysis of NAC by Amino acylase-1 to release of Cys. Fluorescence intensity increases with the increase in concentration of enzyme (0 to 2000 units) as more and more amounts of Cys was released from NAC by the enzymatic activity (FIG. 6). […]

[3] = Time dependent fluorescence response of probe L with biothiols
Experimental: Time dependent fluorescence response of probe L or compound of Formula (L) is carried out with 200 equiv of Cys. […] (FIG. 4).

[4] = UV-Vis absorption response of probe L to amino acids and Cys
From the text: With the addition of Cys (0-100 equiv.), absorption band at 468 nm gradually decreases and a new band appeared at 438 nm with a visible colour change from red to green (FIG. 1B). A hypsochromic shift (˜30 nm) with three well defined isosbestic points are observed at 445 nm, 372 nm and 325 nm. This Cys-induced hypsochromic shift indicates the suppression of ICT process from donor diethylamino unit to acceptor nitroalkene unit.
(§1) 5×10^−3M stock solution of 7-(diethylamino)-3-((E)-4-((E)-2-nitrovinyl)styryl)-2H-chromen-2-one was prepared in CH3CN and the same solution was used for all the studies after appropriate dilution. Unless and otherwise mentioned, 10 mM and pH 7 solution of aq. HEPES buffer was used for all spectroscopic studies. All amino acid solutions of 1.0×10^−1M were prepared in HEPES buffer (pH 7). For spectroscopic measurements, stock solution of the probe was further diluted by using HEPES:CH3CN (9:1) mixture and the effective final concentration was made as 10 μM. All luminescence measurements were done using λext=445 nm with an emission slit width of 2 nm. The fluorescence quantum yield was determined according to literature method using fluorescein (in 0.1M NaOH) as reference (Φf=0.92).

[5] = Comparison of Formula (L) with prior art coumarin derivatives
From the text: In still yet another embodiment, the present invention provides the comparison study of said coumarin derivatives of Formula (L) with previous prior arts coumarin derivative.

[6] = TLC test strips coated with probe L
Experimental: The same strategy is further extended to detect Cys in blood plasma and the Cys released in an enzymatic reaction as well. […] The same methodology is further extended to detect the enzymatically generated Cys from NAC.
TLC test strips were prepared by coating 5 μM of 7-(diethylamino)-3-((E)-4-((E)-2-nitrovinyl)styryl)-2H-chromen-2-one solution in acetonitrile on silica TLC plates. 5 μl of Cys (1.0×10^−1M) in 10 mM aq.HEPES buffer (pH7) was added on it, dried and the visual as well as fluorescence colour changes were observed after 5 min. The same was repeated for Hcy and GSH as well. To detect Cys in blood plasma, 20 μl of blood plasma was diluted (10 μl plasma+10 μl buffer) was added on probe quoted TLC plate. Same methodology was repeated for enzymatic reaction on TLC plate by using 10 μl of NAC and amino acylase-1 enzyme.

[7] = Fluorescence response of probe L to amino acids and Cys in HEPES:CH3CN (9:1), pH 7
From the text: In the absence of Cys, probe L is almost non fluorescent (Φf=0.06), upon addition of Cys (0-1000 equiv.), fluorescence intensity is increased remarkably up to 7 fold with an emission band centered at 524 nm (λExt=445 nm) (FIG. 2B). […] The quantum yield of probe after the addition of Cys increases (Φf=0.32) with respect to fluorescein (Φf=0.92). The fluorescence turn on response of the probe upon addition of Cys is due to the formation of 1,4 conjugate addition product, which blocks the PET quenching by nitro olefin and also ICT process from diethylamino to nitro olefin unit. The results were in well agreement with our proposed hypothesis. […] The fluorescence intensities of the probe at 524 nm show a good linear relationship with the concentration of Cys between 0 to 1000 μM. The detection limit of Cys is determined as 23.65 nM (23.65×10^−9) based on S/N=3. (FIG. 8)
Cys being a low pKa protein thiol, at neutral pH, the thiolate/thiol ratio is higher for Cys than for Hcy and GSH, which results in greater reactivity of Cys with the probe. This could be the reason for getting selectivity to Cys over Hcy and GSH at pH 7. Also pH 7, being neutral, much suitable for biological studies.
as §1

whey protein = assay: Detection of cysteine in whey protein from raw milk; conditions: L 10 μM, whey 500 μl, NAC 0-500 μl
From the text: Suitability of this reagent for specific recognition and estimation of Cys-residues present in natural milk proteins was also explored. For this study whey protein was isolated from milk. Initially some fluorescence was observed, which is due to the presence of free Cys. Then NAC tablets are used to reduce the disulfides present in whey. […] So, this reagent could be used as protein labeling agent to specifically label the Cys present in proteins.
Raw milk was subjected to fermentation and the liquid whey which was settled above after fermentation process was separated by filtration. A varying amount of whey ranging from 500 μl was added to Probe L (7-(diethylamino)-3-((E)-4-((E)-2-nitrovinyl)styryl)-2H-chromen-2-one) (10 μM) in HEPES:ACN at pH 7. Varying concentrations of N-Acetyl Cysteine (0-500 μl) was added to each of the above solution in order to hydrolyse the bound Cysteine present in whey protein (NAC solution was prepared by dissolving NAC tablets in buffer as mentioned in the enzymatic study). Luminescence changes were recorded after 45-50 minutes of incubation at room temperature. The remaining derivatives of probe L may give similar kind of response.

[8] = HEPES:CH3CN (9:1), pH 7, with respect to fluorescein

Compound: N[C@@H](CCS)C(=O)O [Hcy, Homocysteine]
- pKa [1]: 10.0

Compound: O=C(/C=C/c1ccc2ccccc2n1)c1cc2cc3c4c(c2oc1=O)CCCN4CCC3
- sensitivity or specificity of prior art probe (comparison) [2]: Detect only micromolar range

Compound: CCN(CC)c1ccc2cc(/C=C/c3ccc(/C=C/[N+](=O)[O-])cc3)c(=O)oc2c1 [L, 7-(diethylamino)-3-((E)-4-((E)-2-nitrovinyl)styryl)-2H-chromen-2-one]
- fluorescence after addition of aminoacylase-1 (amino acylase-1; L 10 μM, NAC 200 equiv., enzyme 0-2000 units, 37° C.): fluorescent intensity gradually increases
- emission at 520 nm with NAC in absence of aminoacylase-1 (amino acylase-1; L 10 μM, NAC 200 equiv., pH 7): no change in emission intensity was observed
- reaction time at room temperature (amino acylase-1; room temperature): more than 90 min
- time to completion of the reaction with Cys ([3]; 200 equiv of Cys): 25 min
- time dependent fluorescence with Hcy and GSH ([3]; 200 equiv. each): no significant changes in the fluorescence observed
- hypsochromic shift of the absorption band upon addition of Cys ([4]; Cys 0-100 equiv., 468 nm to 438 nm): ~30 nm
- absorption response to amino acids (selectivity) ([4]; L 10 μM, amino acids 100 equiv., pH 7): Only Cys gives an observable change in absorption spectra
- sensitivity of Cys detection (comparison) [5]: in nanomolar range.
- response of probe coated TLC plates to Hcy and GSH [6]: does not give any observable visible as well as fluorescence changes
- colour change of probe coated TLC plates with Cys ([6]; 5 μM L on silica TLC, 365 nm UV lamp): changes from red to yellowish green
- linear range of fluorescence intensity at 524 nm with concentration of Cys [7]: 0 to 1000 µM
- pH dependent selectivity ([7]; Cys, Hcy and GSH with increasing pH): selectivity of probe to Cys at pH 7
- fluorescence quantum yield (Φf) after the addition of Cys [7, 8]: 0.32
- fluorescence quantum yield (Φf) in the absence of Cys [7, 8]: 0.06
- fluorescence intensity increase upon addition of Cys ([7]; L 10 μM, Cys 0-1000 equiv., emission 524 nm, λExt=445 nm): up to 7 fold
- fluorescence response to amino acids (selectivity) ([7]; L 10 μM, amino acids 200 equiv., pH 7): Only Cys gives an enhancement in the fluorescence
- detection limit of Cys ([7]; based on S/N=3, fluorescence at 524 nm): 23.65 nM
- fluorescence response to Hcy and GSH ([7]; identical conditions, pH 7): does not give any significant changes in fluorescence
- fluorescence with whey and NAC (whey protein): fluorescence intensity of L gradually increases

Compound: CCN(CC)c1ccc2cc(/C=C/[N+](=O)[O-])c(=O)oc2c1
- sensitivity or specificity of prior art probe (comparison) [2]: Not specific to Cys

Compound: N[C@@H](CCC(=O)N[C@@H](CS)C(=O)NCC(=O)O)C(=O)O [GSH, Glutathione]
- pKa [1]: 9.5
